Results published in patent US20070142306A1, “Strontium-based complexes, pharmaceutical compositions and dietetic products” (MEDESIS PHARMA SA, priority 2003, published 2007).
“And” between values parts separate entries of the source, which are not always exact repeats. Equal entries are not always repeated.

How the values were obtained:
[1] = Assay of strontium in femoral bones by atomic absorption spectrometry; type: in vivo, rat; conditions: 3 weeks treatment, 68.2 mg/kg/d
Protocol: (§1) Administration to female Wistar rats weighing 200 g.
(§2) Volume of administration: 2 ml/kg.
(§3) Route of administration: Rectal route.
(§4) Dose frequency: Once a day—every 24 hours.
(§5) Treatment duration: 21 days.
(§6) The animals were sacrificed and the femoral bones were removed, cleaned of their tendinous and muscular attachments, then frozen.
Strontium was then assayed in the bones by atomic absorption spectrometry.
The assay of strontium in bone was carried out.

osteoclast = conditions: cited from earlier work
rat model = conditions: administration for 8 weeks; cited from earlier work
female Wistar rats = test: Femoral head (epiphyseal) diameter / bone growth after 21 days rectal treatment; type: in vivo, rat
Protocol: as §1
Number of animals per group: 6 and 8.
Text complex: NP05 (composition produced according to the invention, in which only the quantity of strontium varies).
as §2, §3, §4, §5, §6
The femoral epiphyseal diameter was measured.

osteoblast = conditions: cited from earlier work
animal = conditions: cited from earlier work
postmenopausal women = conditions: 2 mg per day, two years; cited from earlier work
humans = conditions: in humans; cited from earlier work

[Cl-].[Cl-].[Sr+2] [Strontium chloride, strontium chloride]
strontium incorporation in bone compared with the controls [1]: 4 | osteoclast multiplication (osteoclast): inhibition | minimum dose stimulating bone growth (rat model): 68.2 mg of strontium (metal) | effect on bone growth (female Wistar rats; 3 weeks treatment, compared with control animals (NP05 also with the strontium chloride group)): no effect | Diameter of femoral head, Mean (female Wistar rats; group mean, 68.2 mg/kg strontium metal, rectal, 21 days): 4.01 millimeters | Diameter of femoral head, Femur 1 (female Wistar rats; individual rats, 68.2 mg/kg strontium metal, rectal, once a day, 21 days): 4 millimeters | Diameter of femoral head, Femur 2 (female Wistar rats; individual rats, 68.2 mg/kg strontium metal, rectal, once a day, 21 days, 68.2 mg/kg): 4 millimeters (7×) and 4.1 millimeters | osteoblast proliferation (osteoblast): stimulation

N#Cc1c(N(CC(=O)[O-])CC(=O)[O-])sc(C(=O)[O-])c1CC(=O)[O-].[Sr+2].[Sr+2] [strontium ranelate]
osteoclast multiplication (osteoclast): inhibition | minimum dose stimulating bone growth (rat model): 68.2 mg of strontium (metal) | dose required for therapeutic activity in animal studies (animal; as strontium ranelate, corresponding to 68.2 mg of strontium metal): 200 mg per day | dose causing toxic effects (osteomalacic bone lysis) (animal; ranelate dose, four times the active dose): above 800 mg per day | bone alkaline phosphatase (marker of bone formation) (postmenopausal women): significantly increased | bone mineral density in the lumbar spine (postmenopausal women): significant increase | marker of bone resorption (postmenopausal women): decreased | amount necessary to obtain therapeutic activity (humans): 2 g/day | osteoblast proliferation (osteoblast): stimulation
